Measurements as given in US8758816B2, “Compositions comprising azelastine and methods of use thereof” (priority 2004, dated 2014).

Assays:
[1] = tested on: patients with seasonal allergic rhinitis (SAR); experiment: MP 428 study: Adult Rhinoconjunctivitis Quality of Life Questionnaire outcomes, change from baseline; format: in vivo, human; conditions: Day 14/ET; Intent-to-Treat Population
[2] = tested on: patients with seasonal allergic rhinitis (SAR); experiment: MP 428 study: adverse events, Safety Population; format: in vivo, human
Procedure: A two-week, randomized, double-blind study, which evaluated the effects of the co-administration of ASTELIN® (azelastine hydrochloride (HCl)) and FLONASE® (fluticasone propionate) compared to either product alone in patients with seasonal allergic rhinitis (SAR) was conducted during the 2006 Texas mountain cedar season. After a 5-day placebo lead-in period, 151 patients with moderate-to-severe allergic rhinitis symptoms were randomized to either: (1) (49 total patients) ASTELIN® (azelastine hydrochloride (HCl)) plus placebo saline nasal spray 2 sprays per nostril, 15 minutes apart, twice daily (AM & PM); (2) (50 total patients) FLONASE® (fluticasone propionate) plus placebo saline nasal spray, 2 sprays per nostril, 15 minutes apart, once daily (AM) and two sessions of placebo saline nasal spray, 2 sprays per nostril, 15 minutes apart (PM); or (3) (52 total patients) the co-administration of ASTELIN® (azelastine hydrochloride (HCl)) 2 sprays per nostril plus FLONASE® (fluticasone propionate) 2 sprays per nostril (AM), 15 minutes apart, and ASTELIN® (azelastine hydrochloride (HCl)) 2 sprays per nostril plus placebo saline nasal spray, 15 minutes apart, (PM) for a 2-week double-blind treatment period.
The most common adverse events (AEs) were bitter taste (8.2% in ASTELIN® (azelastine hydrochloride (HCl)) group, 2.0% in FLONASE® (fluticasone propionate) group, 13.5% in co-administration group) and headache (4.1% in ASTELIN® (azelastine hydrochloride (HCl)) group, 4.0% in FLONASE® (fluticasone propionate) group, 5.8% in co-administration group). No other AE was reported by more than one patient in any treatment group. There were no discontinuations due to AEs.

[3] = Possibly related to study drug, Safety Population
[4] = Probably related to study drug, Safety Population
[5] = Total (possibly or probably related), Safety Population

CCC(=O)O[C@]1(C(=O)SCF)[C@H](C)C[C@H]2[C@@H]3C[C@H](F)C4=CC(=O)C=C[C@]4(C)[C@@]3(F)[C@@H](O)C[C@@]21C [Fluticasone, fluticasone propionate]
3 (6.0) Number (%): Number (%) Patients With Treatment-Related AEs by Maximum Severity ([2]; Mild)
−1.26: RQLQ Change From Baseline in Sleep, Mean [1]
−1.72: RQLQ Change From Baseline in Nasal Symptoms, LS Mean [1]
−1.51: RQLQ Change From Baseline in Eye Symptoms, LS Mean [1]
−1.75: RQLQ Change From Baseline in Eye Symptoms, Median [1]
−1.52: RQLQ Change From Baseline in Activity, LS Mean [1]
1 (2.0) Number (%): Number (%) Patients With Treatment-Related AEs by Maximum Severity ([2]; Moderate)
0 (0.0) Number (%): Number (%) of Deaths ([2]; Safety Population) | Number (%) of Patients With Serious AEs ([2]; Safety Population) | Number (%) Patients With Treatment-Related AEs by Maximum Severity ([2]; Severe)
5: Number of Adverse Events Reported: All Treatment-Emergent AEs ([2]; Safety Population)
4.0%: adverse event: headache ([2]; share of treatment group)
4: Number of Adverse Events Reported: All Treatment-Related AEs ([2]; Safety Population)
0 (0.0) No. of Patients (%): Treatment-Related Adverse Events: EPISTAXIS [2, 3] | Treatment-Related Adverse Events: NASAL DISCOMFORT [2, 3] | Treatment-Related Adverse Events: RESPIRATORY, THORACIC AND MEDIASTINAL DISORDERS, Any Preferred Term [2, 3] | Treatment-Related Adverse Events: Any Adverse Event [2, 4] | Treatment-Related Adverse Events: DRY MOUTH [2, 4] | Treatment-Related Adverse Events: DYSGEUSIA [2, 4] | Treatment-Related Adverse Events: EPISTAXIS [2, 4] | Treatment-Related Adverse Events: GASTROINTESTINAL DISORDERS, Any Preferred Term [2, 4] | Treatment-Related Adverse Events: HEADACHE [2, 4] | Treatment-Related Adverse Events: NASAL DISCOMFORT [2, 4] | Treatment-Related Adverse Events: NERVOUS SYSTEM DISORDERS, Any Preferred Term [2, 4] | Treatment-Related Adverse Events: RESPIRATORY, THORACIC AND MEDIASTINAL DISORDERS, Any Preferred Term [2, 4] | Treatment-Related Adverse Events: STOMACH DISCOMFORT [2, 4] | Treatment-Emergent AE: EAR AND LABYRINTH DISORDERS, Any Preferred Term ([2]; Total) | Treatment-Emergent AE: EAR PAIN ([2]; Total) | Treatment-Emergent AE: EPISTAXIS ([2]; Total) | Treatment-Emergent AE: MUSCULOSKELETAL AND CONNECTIVE TISSUE DISORDERS, Any Preferred Term ([2]; Total) | Treatment-Emergent AE: MYALGIA ([2]; Total) | Treatment-Emergent AE: NASAL DISCOMFORT ([2]; Total) | Treatment-Emergent AE: NECK PAIN ([2]; Total) | Treatment-Emergent AE: PHARYNGOLARYNGEAL PAIN ([2]; Total) | Treatment-Emergent AE: RESPIRATORY, THORACIC AND MEDIASTINAL DISORDERS, Any Preferred Term ([2]; Total) | Treatment-Related Adverse Events: EPISTAXIS [2, 5] | Treatment-Related Adverse Events: NASAL DISCOMFORT [2, 5] | Treatment-Related Adverse Events: RESPIRATORY, THORACIC AND MEDIASTINAL DISORDERS, Any Preferred Term [2, 5] | Treatment-Emergent AE: EAR AND LABYRINTH DISORDERS, Any Preferred Term ([2]; max severity Mild) | Treatment-Emergent AE: EAR PAIN ([2]; max severity Mild) | Treatment-Emergent AE: EPISTAXIS ([2]; max severity Mild) | Treatment-Emergent AE: MUSCULOSKELETAL AND CONNECTIVE TISSUE DISORDERS, Any Preferred Term ([2]; max severity Mild) | Treatment-Emergent AE: MYALGIA ([2]; max severity Mild) | Treatment-Emergent AE: NASAL DISCOMFORT ([2]; max severity Mild) | Treatment-Emergent AE: NECK PAIN ([2]; max severity Mild) | Treatment-Emergent AE: PHARYNGOLARYNGEAL PAIN ([2]; max severity Mild) | Treatment-Emergent AE: RESPIRATORY, THORACIC AND MEDIASTINAL DISORDERS, Any Preferred Term ([2]; max severity Mild) | Treatment-Emergent AE: STOMACH DISCOMFORT ([2]; max severity Mild) | Treatment-Emergent AE: DRY MOUTH ([2]; max severity Moderate) | Treatment-Emergent AE: DYSGEUSIA ([2]; max severity Moderate) | Treatment-Emergent AE: EAR AND LABYRINTH DISORDERS, Any Preferred Term ([2]; max severity Moderate) | Treatment-Emergent AE: EAR PAIN ([2]; max severity Moderate) | Treatment-Emergent AE: EPISTAXIS ([2]; max severity Moderate) | Treatment-Emergent AE: HEADACHE ([2]; max severity Moderate) | Treatment-Emergent AE: MUSCULOSKELETAL AND CONNECTIVE TISSUE DISORDERS, Any Preferred Term ([2]; max severity Moderate) | Treatment-Emergent AE: MYALGIA ([2]; max severity Moderate) | Treatment-Emergent AE: NASAL DISCOMFORT ([2]; max severity Moderate) | Treatment-Emergent AE: NECK PAIN ([2]; max severity Moderate) | Treatment-Emergent AE: NERVOUS SYSTEM DISORDERS, Any Preferred Term ([2]; max severity Moderate) | Treatment-Emergent AE: PHARYNGOLARYNGEAL PAIN ([2]; max severity Moderate) | Treatment-Emergent AE: RESPIRATORY, THORACIC AND MEDIASTINAL DISORDERS, Any Preferred Term ([2]; max severity Moderate) | Treatment-Emergent AE: Any Adverse Event ([2]; max severity Severe) | Treatment-Emergent AE: DRY MOUTH ([2]; max severity Severe) | Treatment-Emergent AE: DYSGEUSIA ([2]; max severity Severe) | Treatment-Emergent AE: EAR AND LABYRINTH DISORDERS, Any Preferred Term ([2]; max severity Severe) | Treatment-Emergent AE: EAR PAIN ([2]; max severity Severe) | Treatment-Emergent AE: EPISTAXIS ([2]; max severity Severe) | Treatment-Emergent AE: GASTROINTESTINAL DISORDERS, Any Preferred Term ([2]; max severity Severe) | Treatment-Emergent AE: HEADACHE ([2]; max severity Severe) | Treatment-Emergent AE: MUSCULOSKELETAL AND CONNECTIVE TISSUE DISORDERS, Any Preferred Term ([2]; max severity Severe) | Treatment-Emergent AE: MYALGIA ([2]; max severity Severe) | Treatment-Emergent AE: NASAL DISCOMFORT ([2]; max severity Severe) | Treatment-Emergent AE: NECK PAIN ([2]; max severity Severe) | Treatment-Emergent AE: NERVOUS SYSTEM DISORDERS, Any Preferred Term ([2]; max severity Severe) | Treatment-Emergent AE: PHARYNGOLARYNGEAL PAIN ([2]; max severity Severe) | Treatment-Emergent AE: RESPIRATORY, THORACIC AND MEDIASTINAL DISORDERS, Any Preferred Term ([2]; max severity Severe) | Treatment-Emergent AE: STOMACH DISCOMFORT ([2]; max severity Severe)
2 (4.0) No. of Patients (%): Treatment-Emergent AE: HEADACHE ([2]; Total) | Treatment-Emergent AE: NERVOUS SYSTEM DISORDERS, Any Preferred Term ([2]; Total) | Treatment-Emergent AE: GASTROINTESTINAL DISORDERS, Any Preferred Term ([2]; max severity Mild) | Treatment-Emergent AE: HEADACHE ([2]; max severity Mild) | Treatment-Emergent AE: NERVOUS SYSTEM DISORDERS, Any Preferred Term ([2]; max severity Mild)
3 (6.0) No. of Patients (%): Treatment-Related Adverse Events: GASTROINTESTINAL DISORDERS, Any Preferred Term [2, 3] | Treatment-Emergent AE: GASTROINTESTINAL DISORDERS, Any Preferred Term ([2]; Total) | Treatment-Related Adverse Events: GASTROINTESTINAL DISORDERS, Any Preferred Term [2, 5]
−1.19: RQLQ Change From Baseline in Non-nose/eye Symptoms, LS Mean [1]
−1.37: RQLQ Change From Baseline in Overall Score, Median [1]
5 (10.0) No. of Patients (%): Treatment-Emergent AE: Any Adverse Event ([2]; Total)
1 (2.0) No. of Patients (%): Treatment-Related Adverse Events: DRY MOUTH [2, 3] | Treatment-Related Adverse Events: DYSGEUSIA [2, 3] | Treatment-Related Adverse Events: HEADACHE [2, 3] | Treatment-Related Adverse Events: NERVOUS SYSTEM DISORDERS, Any Preferred Term [2, 3] | Treatment-Related Adverse Events: STOMACH DISCOMFORT [2, 3] | Treatment-Emergent AE: DRY MOUTH ([2]; Total) | Treatment-Emergent AE: DYSGEUSIA ([2]; Total) | Treatment-Emergent AE: STOMACH DISCOMFORT ([2]; Total) | Treatment-Related Adverse Events: DRY MOUTH [2, 5] | Treatment-Related Adverse Events: DYSGEUSIA [2, 5] | Treatment-Related Adverse Events: HEADACHE [2, 5] | Treatment-Related Adverse Events: NERVOUS SYSTEM DISORDERS, Any Preferred Term [2, 5] | Treatment-Related Adverse Events: STOMACH DISCOMFORT [2, 5] | Treatment-Emergent AE: DRY MOUTH ([2]; max severity Mild) | Treatment-Emergent AE: DYSGEUSIA ([2]; max severity Mild) | Treatment-Emergent AE: Any Adverse Event ([2]; max severity Moderate) | Treatment-Emergent AE: GASTROINTESTINAL DISORDERS, Any Preferred Term ([2]; max severity Moderate) | Treatment-Emergent AE: STOMACH DISCOMFORT ([2]; max severity Moderate)
−1.33: RQLQ Change From Baseline in Activity, Median [1] | RQLQ Change From Baseline in Sleep, Median [1]
4 (8.0) No. of Patients (%): Treatment-Related Adverse Events: Any Adverse Event [2, 3] | Treatment-Related Adverse Events: Any Adverse Event [2, 5] | Treatment-Emergent AE: Any Adverse Event ([2]; max severity Mild)
4 (8.0) Number (%): Number (%) Patients With Any AEs: All Treatment-Related AEs ([2]; Safety Population)
−1.23: RQLQ Change From Baseline in Non-nose/eye Symptoms, Mean [1] | RQLQ Change From Baseline in Sleep, LS Mean [1]
−1.47: RQLQ Change From Baseline in Overall Score, LS Mean [1]
0 (0.0) N (%): Primary Reason for Discontinuation From Study: Adverse Event ([2]; All Randomized Patients)
−1.74: RQLQ Change From Baseline in Nasal Symptoms, Mean [1] | RQLQ Change From Baseline in Practical Problems, LS Mean [1]
−1.50: RQLQ Change From Baseline in Activity, Mean [1] | RQLQ Change From Baseline in Emotional, Mean [1] | RQLQ Change From Baseline in Nasal Symptoms, Median [1]
−1.25: RQLQ Change From Baseline in Emotional, Median [1]
2.0%: adverse event: bitter taste ([2]; share of treatment group)
−1.76: RQLQ Change From Baseline in Practical Problems, Mean [1]
−1.49: RQLQ Change From Baseline in Overall Score, Mean [1]
−1.42: RQLQ Change From Baseline in Emotional, LS Mean [1]
−1.67: RQLQ Change From Baseline in Practical Problems, Median [1]
−1.53: RQLQ Change From Baseline in Eye Symptoms, Mean [1]
−1.14: RQLQ Change From Baseline in Non-nose/eye Symptoms, Median [1]
